How the values were obtained:
[1] = target: T1, cloned human P2Y1 receptors (Homo sapiens (Human), UniProt P47900); assay: Binding Assay A: membrane binding assay, [33P] 2MeS-ADP, WGA FlashPlates
Description: A membrane binding assay was used to identify inhibitors of [^33P] […] The cDNA clone for human P2Y1 was obtained from Incyte Pharmaceuticals and its sequence confirmed by established techniques (for a compendium of techniques used see Ausubel, F. et al. Current Protocols in Molecular Biology, John Wiley and Sons, NY, N.Y. (1995)). The essential coding sequences were subcloned into pCDNA 3.1 (Invitrogen) to produce a P2Y1 expression construct. This construct was then transfected into the human embryonic kidney cell line HEK-293 and stable transfectants selected in GENETICIN® (G418 sulfate; Life Technologies). […] Membranes were prepared by growing HEK293 #49 in 150 mm dishes in DMEM/10% FBS in the presence of 1 mg/ml G418 until cells were 80-90% confluent. Plates were then washed with cold (4° C.) D-PBS twice and cells harvested by scraping into 10 mL D-PBS. Cells were pelleted by centrifugation (1,000 g, 10 min, 4° C.) and the resulting pellet resuspended in Lysis Buffer (10 mM Tris (7.4), 5 mM MgCl2 containing Complete protease inhibitor cocktail (Roche Cat #1873580) as recommended by the manufacturer). The suspension was then homogenized in a Dounce homogenizer (10-15 strokes; B pestle, on ice) and the homogenate spun at 1,000 g, 4° C., 5 min to pellet large debris. The supernatant was centrifuged at 150,000 g, 4° C., for 1 hour and the resulting membrane pellet resuspended in 0.5-1 mL of Buffer B (15 mM HEPES (7.4), 145 mM NaCl, 0.1 mM MgCl2, 5 mM EDTA, 5 mM KCl) and stored at −70° C. until used.
Binding reactions were performed in WGA FlashPlates (PerkinElmer Life Sciences, Cat # SMP105A) in a volume of 200 μL containing ˜45 fmol of P2Y1 receptor (5 μg of total protein), 0.5 nM [^33P] […] Reactions were allowed to proceed to completion at room temperature for 1 hour and then the aqueous solution aspirated. Plates were sealed and the residual [^33P] bound to the plate determined by scintillation counting.

[2] = test system: human platelet rich plasma (PRP); assay: ADP induced platelet aggregation assay; type: cell-based; details: 5 min, read-out: PA IC50 (μM) @ 10 μM ADP
Protocol: ADP Induced Platelet Aggregation Assay
The ability of P2Y1 antagonists covered in the present invention to inhibit platelet aggregation induced by 10 μM ADP was tested using human platelet rich plasma (PRP) as described in Platelet Protocols: Research and Clinical Laboratory Procedures (White, M. M. et al., Academic Press (1999)). Human blood was collected in 30 μM (final concentration in blood) argatroban (GSK) as the anticoagulant at a ratio of 1 ml per 9 ml of blood. The PRP was isolated by centrifugation at 170 g for 12 minutes. The platelet poor plasma (PPP) was used as the blank for optical aggregometry. Compounds of the present invention in DMSO solution was preincubated with 250 μl PRP at 37° C. for 1 minute with stirring speed of 1000 rpm. Aggregation was initiated by addition of 2.5 μl of 1 mM ADP (Chrono-log, Havertown, Pa.) for a final ADP concentration of 10 uM. Platelet aggregation was monitored using Optical Aggregometer (Chrono-log, Havertown, Pa.) and the area under the curve (AUC) at 5 minute was measured. IC50 was calculated using vehicle control as 0% inhibition.
The platelet aggregation assay measures the in vitro antiplatelet activity of a compound in platelet rich plasma. The assay is sensitive to plasma protein binding, and is believed to be a better predictor of actual in vivo activity.

[3] = target: T1, cloned human P2Y1 receptors; assay: Binding Assay B: Scintillation Proximity Assay (SPA) for P2Y1 binding
Protocol: Binding Assay B—Scintillation Proximity Assay (SPA) for P2Y1 Binding
A SPA membrane binding assay was used to identify inhibitors of [^33P] […] Binding reactions were performed in 384-well OptiPlates (PerkinElmer Life Sciences, Cat #6007299) in a volume of 50 μL containing ˜15 fmol of P2Y1 receptor (1.7 μg of total protein), 0.3 nM [^33P] […] Reactions were allowed to proceed to completion at room temperature for 1 hour followed by centrifugation of the plate for 5 min. About 40 μL of the aqueous solution was aspirated. Plates were sealed and the [^33P]

[4] = read-out: P2Y1 Ki (nM), *Using binding assay A
[5] = SPA, 0.3 nM [33P] 2MeS-ADP, Cheng-Prusoff, read-out: P2Y1 Ki (nM) using binding assay B

T1 sequence (P47900 whole entry): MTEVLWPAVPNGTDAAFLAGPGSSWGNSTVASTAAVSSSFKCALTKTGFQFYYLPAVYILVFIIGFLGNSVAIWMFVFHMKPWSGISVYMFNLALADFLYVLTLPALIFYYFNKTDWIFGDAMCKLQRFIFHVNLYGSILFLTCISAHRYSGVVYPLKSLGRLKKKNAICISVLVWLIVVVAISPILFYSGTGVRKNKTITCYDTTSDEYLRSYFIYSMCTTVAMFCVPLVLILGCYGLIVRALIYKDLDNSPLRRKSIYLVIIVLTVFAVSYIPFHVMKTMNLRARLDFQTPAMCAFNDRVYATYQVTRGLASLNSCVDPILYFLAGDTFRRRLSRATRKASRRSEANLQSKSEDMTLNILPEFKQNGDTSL

SMILES | Ki [1, 4] | IC50 [2] | Ki [1] | Ki [3] | Ki [3, 5]
COC(=O)c1sc(Nc2ccccc2N2CC3(CCN(CC(C)(C)C)CC3)c3ccccc32)nc1C [Comparator 3, reference compound] | 18 nM | > 40 µM |  |  | 
CC(C)(C)CN1CCC2(CC1)CN(c1ccccc1Nc1nnc(-c3cccnc3)s1)c1c(O)ccc(Cl)c12 [Example 9, 4-Chloro-1′-neopentyl-1-(2-((5-(pyridin-3-yl)-1,3,4-thiadiazol-2-yl)amino)phenyl)spiro[indoline-3,4′-piperidin]-7-ol] |  | 8.5 µM | 24.3 nM |  | 
CCOC(=O)c1sc(Nc2ccccc2N2CC3(CCN(CC(C)(C)C)CC3)c3ccccc32)nc1C(F)(F)F [Comparator 2, reference compound] | 6.3 nM | > 40 µM |  |  | 
CC(C)(C)CN1CCC2(CC1)CN(c1ccccc1Nc1nc(C(F)(F)F)c(-c3ccccc3)s1)c1ccccc12 [Comparator 4, reference compound] | 7.9 nM | > 40 µM |  |  | 
CC(C)(C)CN1CCC2(CC1)CN(c1ccccc1Nc1nnc(-c3ccc(Cl)c(Cl)c3)s1)c1c(O)ccc(Cl)c12 [Example 25, 4-chloro-1-(2-((5-(3,4-dichloro-phenyl)-1,3,4-thiadiazol-2-yl)amino)phenyl)-1′-neopentylspiro[indoline-3,4′-piperidin]-7-ol] |  | 3.7 µM |  | 19 nM | 
CC(C)(C)CN1CCC2(CC1)CN(c1ccccc1Nc1nnc(-c3cccc(Cl)c3)s1)c1c(O)ccc(Cl)c12 [Example 20, 4-chloro-1-(2-((5-(3-chloro-phenyl)-1,3,4-thiadiazol-2-yl)amino)phenyl)-1′-neopentylspiro[indoline-3,4′-piperidin]-7-ol] |  | 2.6 µM |  |  | 16 nM
CC(C)(C)CN1CCC2(CC1)CN(c1ccccc1Nc1nc(C(C)(C)C)ns1)c1c(O)ccc(Cl)c12 [Example 36, 1-(2-(3-tert-Butyl-1,2,4-thiadiazol-5-ylamino)phenyl)-4-chloro-1′-neopentylspiro[indoline-3,4′-piperidin]-7-ol] |  | 2.1 µM |  | 8 nM | 
CC(C)(C)CN1CCC2(CC1)CN(c1ccccc1Nc1nc(C(C)(C)C)c(C#N)s1)c1c(O)ccc(Cl)c12 [Example 39, 4-tert-Butyl-2-(2-(4-chloro-7-hydroxy-1′-neopentylspiro[indoline-3,4′-piperidine]-1-yl)phenylamino)thiazole-5-carbonitrile] |  | 4.9 µM |  | 9 nM | 
CC(C)(C)CN1CCC2(CC1)CN(c1ccccc1Nc1nnc(-c3ccc(C(F)(F)F)cc3)s1)c1c(O)ccc(C#N)c12 [Example 45, 7-Hydroxy-1′-neopentyl-1-(2-(5-(4-(trifluoromethyl)phenyl)-1,3,4-thiadiazol-2-ylamino)phenyl)spiro[indoline-3,4′-piperidine]-4-carbonitrile] |  | 3.5 µM |  | 3 nM | 
CC(C)(C)CN1CCC2(CC1)CN(c1ccccc1Nc1ccc(C(F)(F)F)cn1)c1c(O)ccc(Cl)c12 [Example 42, 4-Chloro-1′-neopentyl-1-(2-(5-(trifluoromethyl)pyridin-2-ylamino)phenyl)spiro[indoline-3,4′-piperidin]-7-ol] |  | 22.8 µM |  | 22 nM | 
CC(C)(C)CN1CCC2(CC1)CN(c1ccccc1Nc1nnc(-c3ccc(OC(F)(F)F)cc3)s1)c1c(O)ccc(Cl)c12 [Example 26, 4-chloro-1′-neopentyl-1-(2-((5-(4-(trifluoromethoxy)phenyl)-1,3,4-thiadiazol-2-yl)amino)phenyl)spiro[indoline-3,4′-piperidin]-7-ol] |  | 0.9 µM |  |  | 13 nM
CC(C)(C)CN1CCC2(CC1)CN(c1ccccc1Nc1nnc(-c3ccncc3)s1)c1c(O)ccc(Cl)c12 [Example 10, 4-Chloro-1′-neopentyl-1-(2-((5-(pyridin-4-yl)-1,3,4-thiadiazol-2-yl)amino)phenyl)spiro[indoline-3,4′-piperidin]-7-ol] |  | 11.4 µM |  | 40.2 nM | 
CC(C)(C)CN1CCC2(CC1)CN(c1ccccc1Nc1nnc(-c3ccc(C(C)(C)C)cc3)s1)c1c(O)ccc(C#N)c12 [Example 46, 1-(2-(5-(4-tert-Butylphenyl)-1,3,4-thiadiazol-2-ylamino)phenyl)-7-hydroxy-1′-neopentylspiro[indoline-3,4′-piperidine]-4-carbonitrile] |  | 1.1 µM |  | 10 nM | 
CC(C)(C)CN1CCC2(CC1)CN(c1ccccc1Nc1nnc(-c3ccc(OC(F)(F)F)cc3)s1)c1c(O)cc(F)c(F)c12 [Example 34, 4,5-difluoro-1′-neopentyl-1-(2-((5-(4-(trifluoromethoxy)-phenyl)-1,3,4-thiadiazol-2-yl)amino)phenyl)spiro[indoline-3,4′-piperidin]-7-ol] |  | 9.9 µM |  | 37 nM | 
CC(C)(C)CN1CCC2(CC1)CN(c1ccccc1Nc1nnc(-c3ccccn3)s1)c1c(O)ccc(C(F)(F)F)c12 [Example 6, 1′-Neopentyl-1-(2-(5-(pyridin-2-yl)-1,3,4-thiadiazol-2-ylamino)phenyl)-4-(trifluoromethyl)spiro[indoline-3,4′-piperidin]-7-ol] |  | 2.3 µM |  | 11 nM | 
CC(C)(C)CN1CCC2(CC1)CN(c1ccccc1Nc1nnc(-c3ccccn3)s1)c1c(O)ccc(Cl)c12 [Example 28, 4-chloro-1′-neopentyl-1-(2-((5-(pyridin-2-yl)-1,3,4-thiadiazol-2-yl)amino)phenyl)-spiro[indoline-3,4′-piperidin]-7-ol] |  | 5.8 µM |  | 6.8 nM | 
CC(C)CN1CCc2nc(Nc3ccccc3N3CC4(CCN(CC(C)(C)C)CC4)c4c(Cl)ccc(O)c43)sc2C1 [Example 41, 4-Chloro-1-(2-(5-isobutyl-4,5,6,7-tetrahydrothiazolo[5,4-c]pyridin-2-ylamino)phenyl)-1′-neopentylspiro[indoline-3,4′-piperidin]-7-ol] |  | 20.3 µM |  | 21 nM | 
CCOC(=O)c1sc(Nc2ccccc2N2CC3(CCN(CC(C)(C)C)CC3)c3c(Cl)ccc(O)c32)nc1C(F)(F)F [Example 40, Ethyl 2-(2-(4-chloro-7-hydroxy-1′-neopentylspiro[indoline-3,4′-piperidine]-1-yl)phenylamino)-4-(trifluoromethyl)thiazole-5-carboxylate] |  | 1 µM |  | 19 nM | 
CC(C)(C)CN1CCC2(CC1)CN(c1ccccc1Nc1nnc(-c3ccc(C(F)(F)F)cc3)s1)c1c(O)ccc(C(F)(F)F)c12 [Example 3, 1′-Neopentyl-4-(trifluoromethyl)-1-(2-(5-(4-(trifluoromethyl)phenyl)-1,3,4-thiadiazol-2-ylamino)phenyl)spiro[indoline-3,4′-piperidin]-7-ol] |  | 0.5 µM |  |  | 16 nM
CC(C)(C)CN1CCC2(CC1)CN(c1ccccc1Nc1nnc(-c3cnc4ccccc4n3)s1)c1c(O)ccc(Cl)c12 [Example 16, 4-chloro-1′-neopentyl-1-(2-((5-(quinoxalin-2-yl)-1,3,4-thiadiazol-2-yl)amino)phenyl)spiro[indoline-3,4′-piperidin]-7-ol] |  | 17.7 µM |  | 66 nM | 
CC(C)(C)CN1CCC2(CC1)CN(c1ccccc1Nc1nnc(-c3ccccc3)s1)c1c(O)ccc(C(F)(F)F)c12 [Example 1, 1′-Neopentyl-1-(2-(5-phenyl-1,3,4-thiadiazol-2-ylamino)phenyl)-4-(trifluoromethyl)spiro[indoline-3,4′-piperidin]-7-ol] |  | 1 µM |  | 10 nM | 
